In ChEMBL document CHEMBL1201862, “PubChem BioAssay data set” (2004):
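Assay format: 96-well plates, 48-hour exposure. The concentration for 50% growth inhibition is given as GI50.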 Activity calls are given as the source filed them. Cut-off read from the data, not from the text of the source: active = GI50 up to about 1.1 µM and inactive = higher.

Legend:
Assay in all cases: DTP human tumour cell line panel, 48 h
SK-MEL-5 = test system: SK-MEL-5
HCT-15 = test system: HCT-15
A549 = test system: A549
Malme-3M = test system: Malme-3M
UACC-257 = test system: UACC-257
Hs-578T = test system: Hs-578T
U-251 = test system: U-251
NCI/ADR-RES = test system: NCI/ADR-RES
RPMI-8226 = test system: RPMI-8226
BT-549 = test system: BT-549
KM12 = test system: KM12
SW-620 = test system: SW-620
PC-3 = test system: PC-3
HT-29 = test system: HT-29
SN12C = test system: SN12C
MOLT-4 = test system: MOLT-4
MCF7 = test system: MCF7
HCC 2998 = test system: HCC 2998
786-0 = test system: 786-0
SK-MEL-2 = test system: SK-MEL-2

How did the GI50 (SK-MEL-5) turn out when Cn1c2ccccc2c(=O)c2c(O)cc3c(c21)CC(C1(C)CO1)O3 (stereo not given) was run?
Its GI50 is 1.79 µM (inactive).

And the GI50 (HCT-15)?
Its GI50 is 4.69 µM.

What about the GI50 (A549) of the same molecule?
The GI50 was 5.16 µM (inactive).

And the GI50 (Malme-3M)?
Its GI50 is 10.5 µM (inactive).

And the GI50 (UACC-257)?
Its GI50 is 3.93 µM (inactive).

And the GI50 (Hs-578T)?
Its GI50 is 2 µM (inactive).

And the GI50 (U-251)?
Its GI50 is 3.16 µM (inactive).

What about the GI50 (NCI/ADR-RES) of the same molecule?
The GI50 was 1.32 µM (inactive).

What about the GI50 (RPMI-8226) of the same molecule?
The GI50 was 2.82 µM (inactive).

What about the GI50 (BT-549) of the same molecule?
Its GI50 is 1.67 µM (inactive).

What about the GI50 (KM12) of the same molecule?
Its GI50 is 2.41 µM (inactive).

And the GI50 (SW-620)?
The GI50 was 1.17 µM (inactive).

And the GI50 (PC-3)?
The GI50 was 3.37 µM (inactive).

What about the GI50 (HT-29) of the same molecule?
Its GI50 is 4.41 µM (inactive).

What about the GI50 (SN12C) of the same molecule?
The GI50 was 1.42 µM (inactive).

And the GI50 (MOLT-4)?
The GI50 was 0.0665 µM (active).

What about the GI50 (MCF7) of the same molecule?
The GI50 was 0.462 µM (active).

And the GI50 (HCC 2998)?
The GI50 was 1.79 µM (inactive).

What about the GI50 (786-0) of the same molecule?
The GI50 was 1.71 µM (inactive).

What about the GI50 (SK-MEL-2) of the same molecule?
Its GI50 is 0.887 µM (active).

How did the GI50 (SK-MEL-5) turn out when Cc1c(C)c(S(=O)(=O)N(CCCN)OCCCN)c(C)c2c1OC(C)(C)C2 was run?
The GI50 was 30.8 µM (inactive).

What about the GI50 (HCT-15) of the same molecule?
Its GI50 is 68.7 µM.

What about the GI50 (A549) of the same molecule?
Its GI50 is 44.1 µM (inactive).

What about the GI50 (Malme-3M) of the same molecule?
Its GI50 is 18.5 µM (inactive).

What about the GI50 (UACC-257) of the same molecule?
Its GI50 is 34.3 µM (inactive).

What about the GI50 (Hs-578T) of the same molecule?
The GI50 was 18.8 µM (inactive).

And the GI50 (U-251)?
Its GI50 is 17.3 µM (inactive).

And the GI50 (NCI/ADR-RES)?
The GI50 was > 100 µM (inactive).

What about the GI50 (RPMI-8226) of the same molecule?
The GI50 was 42.3 µM (inactive).

What about the GI50 (BT-549) of the same molecule?
The GI50 was 30.5 µM (inactive).

And the GI50 (KM12)?
The GI50 was 17.6 µM (inactive).

And the GI50 (SW-620)?
The GI50 was 27.5 µM (inactive).

And the GI50 (PC-3)?
Its GI50 is 17.7 µM (inactive).

What about the GI50 (HT-29) of the same molecule?
Its GI50 is 45.8 µM (inactive).

What about the GI50 (SN12C) of the same molecule?
The GI50 was 61.1 µM (inactive).

And the GI50 (MOLT-4)?
The GI50 was 20.4 µM (inactive).

What about the GI50 (MCF7) of the same molecule?
Its GI50 is 20.5 µM (inactive).

What about the GI50 (HCC 2998) of the same molecule?
Its GI50 is 19.5 µM (inactive).

And the GI50 (786-0)?
Its GI50 is 25.5 µM (inactive).

What about the GI50 (SK-MEL-2) of the same molecule?
Its GI50 is 9.64 µM (inactive).

For CN(C)/C=N/S(=O)(=O)c1nn2c(C=O)c(-c3ccccc3)nc2s1, which GI50 (SK-MEL-5) is on record?
The GI50 was 11.5 µM (inactive).

And the GI50 (HCT-15)?
The GI50 was 9.46 µM.

And the GI50 (A549)?
Its GI50 is 26.6 µM (inactive).

And the GI50 (Malme-3M)?
The GI50 was 12.9 µM (inactive).

What about the GI50 (UACC-257) of the same molecule?
The GI50 was 24.2 µM (inactive).

What about the GI50 (Hs-578T) of the same molecule?
Its GI50 is 19.5 µM (inactive).

What about the GI50 (U-251) of the same molecule?
Its GI50 is 15.9 µM (inactive).

What about the GI50 (NCI/ADR-RES) of the same molecule?
Its GI50 is 23.2 µM (inactive).

And the GI50 (RPMI-8226)?
Its GI50 is 3.43 µM (inactive).

And the GI50 (BT-549)?
The GI50 was 4.65 µM (inactive).

And the GI50 (KM12)?
Its GI50 is 22.6 µM (inactive).

What about the GI50 (SW-620) of the same molecule?
Its GI50 is 3.76 µM (inactive).

And the GI50 (PC-3)?
Its GI50 is 14.1 µM (inactive).

What about the GI50 (HT-29) of the same molecule?
Its GI50 is 1.94 µM (inactive).

What about the GI50 (SN12C) of the same molecule?
The GI50 was 13.5 µM (inactive).

What about the GI50 (MOLT-4) of the same molecule?
Its GI50 is 3.21 µM (inactive).

What about the GI50 (MCF7) of the same molecule?
The GI50 was 4.93 µM (inactive).

What about the GI50 (HCC 2998) of the same molecule?
The GI50 was 36.1 µM (inactive).

What about the GI50 (786-0) of the same molecule?
The GI50 was 5.62 µM (inactive).

What about the GI50 (SK-MEL-2) of the same molecule?
The GI50 was 43 µM (inactive).

For Clc1ccc(CCN2CCN(CCCc3ccccc3)CC2)cc1Cl, which GI50 (SK-MEL-5) is on record?
Its GI50 is 15.8 µM (inactive).

What about the GI50 (HCT-15) of the same molecule?
Its GI50 is 13.5 µM.

And the GI50 (A549)?
The GI50 was 15.9 µM (inactive).

What about the GI50 (Malme-3M) of the same molecule?
Its GI50 is 19.1 µM (inactive).

And the GI50 (UACC-257)?
Its GI50 is 17.1 µM (inactive).

And the GI50 (Hs-578T)?
Its GI50 is 23.5 µM (inactive).

What about the GI50 (U-251) of the same molecule?
The GI50 was 17.4 µM (inactive).

What about the GI50 (NCI/ADR-RES) of the same molecule?
The GI50 was 14.7 µM (inactive).

And the GI50 (RPMI-8226)?
Its GI50 is 20.9 µM (inactive).

And the GI50 (BT-549)?
Its GI50 is 15.8 µM (inactive).

What about the GI50 (KM12) of the same molecule?
The GI50 was 17.7 µM (inactive).

What about the GI50 (SW-620) of the same molecule?
The GI50 was 20 µM (inactive).

What about the GI50 (PC-3) of the same molecule?
Its GI50 is 17.7 µM (inactive).

What about the GI50 (HT-29) of the same molecule?
Its GI50 is 13.2 µM (inactive).

What about the GI50 (SN12C) of the same molecule?
Its GI50 is 16 µM (inactive).

And the GI50 (MOLT-4)?
The GI50 was 29.6 µM (inactive).

What about the GI50 (MCF7) of the same molecule?
The GI50 was 17.5 µM (inactive).

And the GI50 (HCC 2998)?
Its GI50 is 17 µM (inactive).

What about the GI50 (786-0) of the same molecule?
Its GI50 is 16.6 µM (inactive).

And the GI50 (SK-MEL-2)?
Its GI50 is 18.8 µM (inactive).
